From patent publication EP0563386A1, “ANTICANCER COMPOSITION AND COMPOUND” (NIPPON SHINYAKU COMPANY, LIMITED, priority 1990, dated 1992)

Legend:
[1] = test system: Meth A fibrosarcoma; assay: Meth A fibrosarcoma tumor volume in mice (Test Example 2); type: in vivo, BALB/c mice; details: Test (2): start tumor volume 160-180 mm³; irsogladine maleate 10 mg/kg or 5-fluorouracil 30 mg/kg orally; Fig. 2
Description: • (1) The homologus tumor Meth A fibrosarcoma subcultured (ascites type) in BALB/c mice, 5 x 10^5 cells, was transplanted subcutaneously at the flank of 6-week-old male BALB/c mice. Mice having a tumor volume of 70-100 mm³ were selected and divided into groups of 9. Oral single daily administration of the test compound was started and the body weight and tumor volume were serially determined. The volume was determined using the same calculation formula as shown in Test Example 1. The compound of the invention irsogladine maleate, 10 mg/kg, suspended in 0.5% methylcellulose maleate and 5-fluorouracil, 15 mg/kg, dissolved in 0.5% methylcellulose solution were respectively administered orally. The control group received 0.5% methylcellulose solution orally. […] The effect of the com pound of this invention as an anticancer agent is, thus, clear. • (2) As in the above test, mice having a tumor volume of 160-180 mm³ were selected and subjected to the same test as above. The compound of this invention irsogladine maleate, 10 mg/kg, 5-flurorouracil, 30 mg/kg, or as a combination therapy, irsogladine maleate, 10 mg/kg, plus 5-fluorouracil, 30 mg/kg, were administered orally. The control group received the same control material as in the above test orally. […] The anticancer adjuvant activity of the compound of this invention to 5-FU is clear.
The open circle stands for control, the open triangle for 5-FU and the closed circle for the compound of the invention. The tumor volume (mm³) is plotted on the vertical axis and the number of days after drug administration on the horizontal axis.
The open circle stands for control, the open triangle for F-5U, the closed circle for the compound of the invention, the open square for the combination therapy. The tumor volume (mm³) is plotted on the vertical axis and the number of days after drug administration on the horizontal axis.

[2] = test system: WiDr (human colon cancer); assay: Tumor growth inhibition, WiDr implant in nude mice (Test Example 1); type: in vivo, BALB/c nude mice; details: implant volume on day 18 after transplantation divided by volume at transplantation; irsogladine maleate 10 mg/kg orally once daily from day 14; cyclophosphamide 150 mg/kg intraperitoneally once on day 14; groups of 10
Description: WiDr (human colon cancer) cells subcultured in BALB/c nude mice were dissected to prepare cubes, about 2 mm³ each. These cubes were transplanted subaxillarily into separate BALB/c nude mice using a transplantation needle. The animals were divided into groups of 10 individuals on day 10 after transplantation and the body weight and the diameter of the implant were serially determined. As the compound of this invention, irsogladine maleate, 10 mg/kg, was suspended in 0.5% methylcellulose solution and administered orally once daily beginning day 14 after transplantation. Cyclophosphamide, 150 mg/kg, was dissolved in PBS and administered intraperitoneally once on day 14 after transplantation. The control group received 0.5% methylcellulose solution orally once daily beginning day 14 after transplantation.
The volume of the implant on day 18 after transplantation was divided by the volume at trans plantation. […]
The effect of the compound of this invention as an anticancer agent is clear.

Row | Compound | tumor-inhibitory effect, single drug [1] | Tumor volume ratio [2]
1 | O=c1[nH]cc(F)c(=O)[nH]1 [5-FU, 5-fluorouracil, reference compound] | tumor-inhibitory effect | –
2 | O=P1(N(CCCl)CCCl)NCCCO1 (centres unmarked) [Cyclophosphamide, reference compound] | – | 1.52 ± 0.06
